Measurements published in US20070020190A1, “Medicament comprising a highly potent long-lasting beta2-agonist in combination with other active ingredients” (priority 2003, published 2007).
Structures can show the parent of a compound that is named as a salt.

Key:
[1] = tested on: acetylcholine-induced bronchoconstriction in guinea-pigs; assay: Acetylcholine-induced bronchoconstriction in guinea pigs (Konzett and Rossler); format: in vivo, guinea pig; conditions: for ED50, acetylcholine-induced bronchoconstriction: acetylcholine 20 μg/kg iv, superfused onto tracheal mucosa
Protocol: Guinea pigs were prepared as originally described by Konzett and Rossler, Naunyn-Schmiedeberg's Arch Pharmacol, 1940; 195: 556-557.
Bronchoconstriction was induced by intravenous administration of acetylcholine (20 μg/kg). The antibronchospastic activity of different concentrations of tiotropium (0.1 to 30 pmol) or TA 2005 (0.3 to 100 pmol), alone or in combination, was investigated.

asthmatic patients = assay: Preliminary clinical trial of bronchodilator efficacy (FEV1 by spirometry) in asthmatic patients; format: in vivo; conditions: single dose of 1 μg, inhalation
Protocol: The bronchodilator efficacy of TA 2005, defined as increase from baseline in the forced expiratory volume over one second (FEV1), measured by spirometry, has been assessed in a preliminary clinical trial in a small group of asthmatic patients.
The results have shown that already following administration of a single dose of 1 μg a mean and persistent increase of FEV1 approximately 30% greater than baseline can be obtained.

[2] = tested on: rat lung oedema induced by Sephadex; assay: Sephadex-induced lung oedema model; format: in vivo; conditions: intratracheal; for non effective dose on Sephadex-induced lung oedema: from dose-response curves
Protocol: The rat lung oedema induced by Sephadex is a model which leads to inflammatory cells infiltration and long-lasting interstitial oedema. […] The test substances were suspended in saline and administered intratracheally suitably diluted in the Sephadex suspension. 24 h post-administration, the animals were sacrificed and the lungs removed and weighted. Percent inhibition of the Sephadex-induced oedema was then determined.

[3] = tested on: isolated tracheal strips from ovalbumin-sensitised guinea pigs; assay: β2-desensitisation in isolated tracheal strips from ovalbumin-sensitised guinea pigs (carbachol-induced contraction); set-up: species or system guinea pig
Protocol: A prolonged use of β2-agonists results in down-regulation of pulmonary β2-adenoceptors. This phenomenon can be counteracted by concomitant treatment with a corticosteroid.
In the present study tracheal strips obtained from ovalbumin-sensitised guinea-pigs (100 mg/kg ip and 100 mg/kg sc, 20 days before sacrifice) were submitted to β2-desensitisation by contact for two 20-min periods with a supra-maximal concentration of salbutamol (5*10^−6 M). In some experiments guinea pigs 24 and 1.5 h before sacrifice received 50 mg/kg ip of budesonide.

healthy male volunteers = conditions: single inhaled doses 0.8-12.8 μg, cited from earlier work
[4] = tested on: isolated guinea pig tracheal strips; assay: Carbachol-induced contraction in isolated guinea pig tracheal strips
Text: The pharmacological interaction between the β2-adrenoceptor agonist TA 2005 and the M3-receptor antagonist tiotropium bromide was investigated in isolated guinea pig tracheal strips contracted with carbachol.

[5] = tested on: bronchoconstriction induced by acetaldehyde in the guinea pig; assay: Acetaldehyde-induced bronchoconstriction, histamine release and plasma extravasation in anaesthetized ventilated guinea pigs; format: in vivo
Protocol: Pharmacol., 362:184-189, 2000; as well as in a model of acetaldehyde induced bronchoconstriction (Berti et al., Arzneim-Forsch/Drug Res 1994; 44: 323-326).
The protective activity of TA 2005 (0.1 to 10 pmol), formoterol (0.3 to 30 pmol) or budesonide (31.25 to 500 nmol) was determined after intratracheal superfusion alone or in combination.

COc1ccc(CC(C)NCC(O)c2ccc(O)c3[nH]c(=O)ccc23)cc1 [TA 2005, 8-Hydroxy-5-[(1R)-1-hydroxy-2-[[(1R)-2-(4-methoxyphenyl)-1-methylethyl]amino]ethyl-2(1H)-quinolinone hydrochloride salt]
inhibition of the effect of acetylcholine ([1]; 3 pmol of TA 2005 in the absence of tiotropium): 18%
ED50, acetylcholine-induced bronchoconstriction [1]: 16.7 pmol
mean and persistent increase of FEV1 greater than baseline (asthmatic patients): approximately 30%
non effective dose on Sephadex-induced lung oedema [2]: 0.01 nmol/kg
loss of potency in relaxing the carbachol-induced contraction ([3]; after β2-desensitisation with salbutamol 5*10^−6 M): about 3 times
potentiation of relaxing effects ([3]; after β2-desensitisation, budesonide pretreatment 50 mg/kg ip 24 and 1.5 h before sacrifice): about 6 times
maximum no adverse effect dose (healthy male volunteers; metered dose nebuliser system): 9.6 µg
effect on heart rate, tremor, pulmonary function and plasma potassium (healthy male volunteers): dose-dependent increase in heart rate, tremor and pulmonary function and a decrease in plasma potassium
inhibition at 1 pM ([4]; Cavia porcellus, TA 2005 10^−12 M): 29.3 ± 6.1%

CCCC1O[C@@H]2C[C@H]3[C@@H]4CCC5=CC(=O)C=C[C@]5(C)[C@H]4[C@@H](O)C[C@]3(C)[C@]2(C(=O)CO)O1 (stereo partly shown) [budesonide]
ED50, bronchoconstriction ([5]; budesonide alone, intratracheal superfusion): 396 nmol
fold reduction of budesonide ED50, bronchoconstriction ([5]; combined with 0.1 pmol of TA 2005): 5.3 fold
fold reduction of budesonide ED50, bronchoconstriction ([5]; combined with 0.3 pmol of TA 2005): 14.3 fold
fold reduction of budesonide ED50, bronchoconstriction ([5]; combined with 0.3 pmol of formoterol): 3.0 fold
fold reduction of budesonide ED50, bronchoconstriction ([5]; combined with 1 pmol of formoterol): 5.9 fold
dose of budesonide needed to significantly inhibit Sephadex-induced lung oedema ([2]; budesonide alone (absence of TA 2005)): 240 nmol/kg
dose of budesonide significantly inhibiting Sephadex-induced lung oedema ([2]; in the presence of TA 2005 (0.01 nmol/kg)): 15 nmol/kg
dose of budesonide giving significant reduction in Sephadex-induced lung weight increase ([2]; in the presence of formoterol (0.1 nmol/kg)): 120 nmol/kg

COc1ccc(CC(C)NCC(O)c2ccc(O)c(NC=O)c2)cc1 (stereo not shown) [formoterol]
decline of anti-bronchoconstrictive effect after 240 min ([5]; 30 pmol, intratracheal superfusion): ~50%
effect on AcCHO effects (bronchoconstriction, histamine release, plasma extravasation) ([5]; intratracheal superfusion, TA 2005 0.1-10 pmol, formoterol 0.3-30 pmol, budesonide 31.25-500 nmol): potently antagonised
effect on Sephadex-induced lung oedema ([2]; 24 h post-administration, TA 2005 0.001-0.1, formoterol 0.01-2, budesonide 15-480 nmol/kg): dose-dependent remission
non effective dose on Sephadex-induced lung oedema [2]: 0.1 nmol/kg

C[N+]1(C)[C@@H]2C[C@@H](OC(=O)C(O)(c3cccs3)c3cccs3)C[C@H]1[C@@H]1O[C@@H]12 [tiotropium bromide]
potency relative to TA 2005 ([1]; P<0.001): 5.2 fold
ED50, acetylcholine-induced bronchoconstriction [1]: 3.2 pmol
effect on acetylcholine-induced bronchoconstriction ([1]; tiotropium 0.1-30 pmol, TA 2005 0.3-100 pmol, alone): dose-dependently antagonize
inhibition of carbachol-induced contraction ([4]; tiotropium bromide 3*10^−10 M): 17.1±2.2%
